Measured values published in patent US10570155B2, “Imidazooxazole derivative having antitumor effect, and pharmaceutical composition including same” (KOREA INSTITUTE OF SCIENCE AND TECHNOLOGY, priority 2016, dated 2020).
Like-named read-outs stand apart in the source and are kept apart here.

Assays:
[1] = system: A375P cell line; assay: Inhibitory activity against proliferation of A375P melanoma cell line (MTT assay); type: cell-based; settings: Homo sapiens
Protocol: To examine whether the compounds (2II, 9II, 10II, and 12II to 15II) of the present disclosure have remarkable effects, as compared with imidazothiazole-based compounds previously disclosed by the present inventors (M. S. Abdel-Maksoud et al./European Journal of Medicinal Chemistry 95 (2015) 453-463), inhibitory activities thereof against proliferation of A375P cell line which is a melanoma cell line were compared by the following experiments.
A375P cell line purchased from ATCC was cultured in a DMEM medium [containing 10% FBS and 1% penicillin/streptomycin] under 5% CO2 at 37° C. The cultured A375P cell line was collected using 0.05% trypsin-0.02% EDTA, and inoculated at a cell density of 5×10^3 cells per well in a 96-well plate. To measure cell viability, MTT [3-(4,5-dimethylthiazol-2-yl)-2,5-diphenyltetrazolium bromide] assay (CellTiter 96 Assay, Promega) was performed as follows. MTT assay was performed in accordance with the guidelines of CellTiter 96® (Promega).

[2] = system: LOX IMVI; assay: NCI cancer cell line panel screening (SRB), melanoma cell line LOX IMVI; type: cell-based, human; settings: read-out: IC50 against melanoma cell line in vitro
Protocol: (§1) According to the standard protocol (http://dtp.nci.nih.gov/dtpstandard/dwindex/index.isp) of the US National Cancer Institute (NCI) (www.dtp.nci.nih.gov), screening of a cancer cell line panel was performed. […] For a general screening experiment, cells were inoculated in 96-well microtiter plates in 100 μl at a plating density ranging from 5000 cells/well to 40,000 cells/well depending on the doubling time of individual cell lines. After cell inoculation, the microtiter plates were incubated at 37° C., 5% CO2, 95% air, and 100% relative humidity for 24 hours prior to addition of test compounds. 24 hours later, two plates of each cell line were fixed in situ with trichloroacetic acid (TCA) to measure the cell population for each cell line at the time of test compound addition (Tz). Test compounds were solubilized in dimethyl sulfoxide at 400-fold the intended final maximum test concentration, and stored frozen prior to use. At the time of compound addition, an aliquot of frozen concentrate was thawed and diluted to twice the intended final maximum test concentration with a complete medium containing 50 μg/ml of gentamicin. Additional four concentration of 10-fold or ½ log serial dilutions were made to provide a total of five compound concentrations plus control. Aliquots of 100 μl of these different compound dilutions were added to appropriate microtiter wells already containing 100 μl of medium, resulting in the required final compound concentrations.
(§2) Following compound addition, the plates were incubated for additional 48 hours at 37° C., 5% CO2, 95% air, and 100% relative humidity. For adherent cells, the assay was terminated by the addition of cold TCA. Cells were fixed in situ by the gentle addition of 50 μl of cold 50% (w/v) TCA (final concentration, 10% TAC) and incubated at 4° C. for 60 minutes. The supernatant was discarded, and the plates were washed five times with tap water and air-dried. A sulforhodamine B (SRB) solution (100 μl) at 0.4% (w/v) in 1% acetic acid was added to each well, and plates were incubated at room temperature for 10 minutes. After staining, unbound dye was removed by washing five times with 1% acetic acid and the plates were air-dried. […] For suspension cells, the methodology was the same except that the assay was terminated by fixing settled cells at the bottom of the wells by gently adding 50 μl of 80% TCA (final concentration, 16% TCA). Using the seven absorbance measurements [time zero (Tz), control growth (C), and test growth rate in the presence of compound at the five concentration levels (Ti)], the growth percentage was calculated at each of the compound concentration levels. Growth inhibition percentage was calculated as follows: [(Ti−Tz)/(C−Tz)]×100 for concentrations for which Ti>/=Tz [(Ti−Tz)/Tz]×100 for concentrations for which Ti<Tz.

[3] = system: SK-MEL-5; assay: NCI cancer cell line panel screening (SRB), melanoma cell line SK-MEL-5; type: cell-based, human; settings: read-out: IC50 against melanoma cell line in vitro
Protocol: as §1, §2

[4] = system: SK-MEL-28; assay: NCI cancer cell line panel screening (SRB), melanoma cell line SK-MEL-28; type: cell-based, human; settings: read-out: IC50 against melanoma cell line in vitro
Protocol: as §1, §2

[5] = system: SK-MEL-2; assay: NCI cancer cell line panel screening (SRB), melanoma cell line SK-MEL-2; type: cell-based, human; settings: read-out: IC50 against melanoma cell line in vitro
Protocol: as §1, §2

[6] = system: MDA-MB-435; assay: NCI cancer cell line panel screening (SRB), melanoma cell line MDA-MB-435; type: cell-based; settings: Homo sapiens, read-out: IC50 against melanoma cell line in vitro
Protocol: (§3) According to the standard protocol (http://dtp.nci.nih.gov/dtpstandard/dwindex/index.isp) of the US National Cancer Institute (NCI) (www.dtp.nci.nih.gov), screening of a cancer cell line panel was performed. Briefly, human cell lines were allowed to grow in an RPMI 1640 medium containing 5% FBS and 2 mM L-glutamine. For a general screening experiment, cells were inoculated in 96-well microtiter plates in 100 μl at a plating density ranging from 5000 cells/well to 40,000 cells/well depending on the doubling time of individual cell lines. After cell inoculation, the microtiter plates were incubated at 37° C., 5% CO2, 95% air, and 100% relative humidity for 24 hours prior to addition of test compounds. 24 hours later, two plates of each cell line were fixed in situ with trichloroacetic acid (TCA) to measure the cell population for each cell line at the time of test compound addition (Tz). Test compounds were solubilized in dimethyl sulfoxide at 400-fold the intended final maximum test concentration, and stored frozen prior to use. At the time of compound addition, an aliquot of frozen concentrate was thawed and diluted to twice the intended final maximum test concentration with a complete medium containing 50 μg/ml of gentamicin. Additional four concentration of 10-fold or ½ log serial dilutions were made to provide a total of five compound concentrations plus control. Aliquots of 100 μl of these different compound dilutions were added to appropriate microtiter wells already containing 100 μl of medium, resulting in the required final compound concentrations.
(§4) Following compound addition, the plates were incubated for additional 48 hours at 37° C., 5% CO2, 95% air, and 100% relative humidity. For adherent cells, the assay was terminated by the addition of cold TCA. Cells were fixed in situ by the gentle addition of 50 μl of cold 50% (w/v) TCA (final concentration, 10% TAC) and incubated at 4° C. for 60 minutes. The supernatant was discarded, and the plates were washed five times with tap water and air-dried. A sulforhodamine B (SRB) solution (100 μl) at 0.4% (w/v) in 1% acetic acid was added to each well, and plates were incubated at room temperature for 10 minutes. After staining, unbound dye was removed by washing five times with 1% acetic acid and the plates were air-dried. Bound stain was subsequently solubilized with 10 mM Trizma base, and the absorbance was read on an automated plate reader at a wavelength of 515 nm. For suspension cells, the methodology was the same except that the assay was terminated by fixing settled cells at the bottom of the wells by gently adding 50 μl of 80% TCA (final concentration, 16% TCA). Using the seven absorbance measurements [time zero (Tz), control growth (C), and test growth rate in the presence of compound at the five concentration levels (Ti)], the growth percentage was calculated at each of the compound concentration levels. Growth inhibition percentage was calculated as follows: [(Ti−Tz)/(C−Tz)]×100 for concentrations for which Ti>/=Tz [(Ti−Tz)/Tz]×100 for concentrations for which Ti<Tz.

[7] = system: UACC-62; assay: NCI cancer cell line panel screening (SRB), melanoma cell line UACC-62; type: cell-based; settings: Homo sapiens, read-out: IC50 against melanoma cell line in vitro
Protocol: as §3, §4

[8] = system: M14; assay: NCI cancer cell line panel screening (SRB), melanoma cell line M14; type: cell-based; settings: Homo sapiens, read-out: IC50 against melanoma cell line in vitro
Protocol: as §3, §4

[9] = target: B-RAF (Homo sapiens (Human), UniProt P15056); assay: Protein kinase enzymatic activity (Reaction Biology kinase hotspot, 33P-ATP); type: biochemical; settings: read-out: Inhibitory effect against kinase activity, B-RAF (IC50)
Sequence of B-RAF (P15056 whole entry): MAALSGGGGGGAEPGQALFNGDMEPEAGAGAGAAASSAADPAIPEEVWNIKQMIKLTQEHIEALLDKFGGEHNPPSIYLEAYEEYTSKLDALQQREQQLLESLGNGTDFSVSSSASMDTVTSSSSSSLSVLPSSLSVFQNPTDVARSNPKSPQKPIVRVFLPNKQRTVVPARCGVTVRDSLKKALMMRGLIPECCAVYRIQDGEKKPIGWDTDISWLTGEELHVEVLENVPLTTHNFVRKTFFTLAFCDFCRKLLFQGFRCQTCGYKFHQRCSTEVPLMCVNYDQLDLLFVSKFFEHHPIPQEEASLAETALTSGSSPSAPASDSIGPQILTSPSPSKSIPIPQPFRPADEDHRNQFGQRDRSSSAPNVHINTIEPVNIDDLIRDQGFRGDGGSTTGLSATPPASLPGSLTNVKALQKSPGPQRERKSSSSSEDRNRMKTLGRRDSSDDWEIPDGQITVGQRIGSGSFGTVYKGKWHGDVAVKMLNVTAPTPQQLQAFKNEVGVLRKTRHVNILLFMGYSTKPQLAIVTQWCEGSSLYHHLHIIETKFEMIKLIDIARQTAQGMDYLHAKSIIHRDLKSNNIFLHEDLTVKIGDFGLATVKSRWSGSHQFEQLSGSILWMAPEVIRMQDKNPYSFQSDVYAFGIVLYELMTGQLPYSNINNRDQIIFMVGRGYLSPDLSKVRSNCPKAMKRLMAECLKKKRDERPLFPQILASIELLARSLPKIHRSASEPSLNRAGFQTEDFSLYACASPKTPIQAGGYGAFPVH
Protocol: (§5) Reaction biology kinase hotspot service (http://www.reactionbiology.com) was used to measure IC50. In a final reaction volume of 25 μL, kinase (5 mU to 10 mU) was incubated with 25 mM Tris (pH 7.5), 0.02 mM EGTA, 0.66 mg/ml of myelin basic protein, 10 mM magnesium acetate, and [^33P-ATP] (specific activity of about 500 CPM/pmol, concentration as required). The reaction was initiated by addition of Mg-ATP mix. After incubation for 40 min at room temperature, the reaction was stopped by addition of 5 μl of a 3% phosphoric acid solution. 10 μL of the reaction was then spotted onto a P30 filtermat and washed three times for 5 minutes in 75 mM phosphoric acid and once in methanol prior to drying and scintillation counting.

[10] = target: V600E-B-RAF (Homo sapiens (Human), UniProt P15056, V600E); assay: as above; type: biochemical; settings: read-out: Inhibitory effect against kinase activity, V600E-B-RAF (IC50)
Sequence of V600E-B-RAF (P15056 whole entry V600E): as the sequence (P15056 whole entry) above, with V600E counted along it
Protocol: as §5

[11] = system: A375; assay: NCI cancer cell line panel screening (SRB), melanoma cell line A375; type: cell-based; settings: Homo sapiens, A-375, read-out: IC50 against melanoma cell line in vitro
Protocol: as §3, §4

SMILES: O=S1(=O)NCCN1CCNc1nccc(-c2c(-c3cccc(O)c3)nc3sccn23)n1
- IC50 [1]: 630 nM

SMILES: CN1CCN(CCNc2nccc(-c3c(-c4cccc(O)c4)nc4sccn34)n2)S1(=O)=O
- IC50 [1]: 60 nM

SMILES: O=S1(=O)N(CCNc2nccc(-c3c(-c4cccc(O)c4)nc4sccn34)n2)CCN1Cc1ccccc1
- IC50 [1]: 250 nM

SMILES: CC1(C)CN(CCNc2nccc(-c3c(-c4cccc(O)c4)nc4sccn34)n2)S(=O)(=O)N1
- IC50 [1]: 870 nM

SMILES: O=S1(=O)NCCCN1CCNc1nccc(-c2c(-c3cccc(O)c3)nc3sccn23)n1
- IC50 [1]: 720 nM

SMILES: CN1CCCN(CCNc2nccc(-c3c(-c4cccc(O)c4)nc4sccn34)n2)S1(=O)=O
- IC50 [1]: 470 nM

SMILES: CC(C)(C)OC(=O)N1CCCN(CCNc2nccc(-c3c(-c4cccc(O)c4)nc4sccn34)n2)S1(=O)=O
- IC50 [1]: 470 nM

SMILES: COc1ccc(S(=O)(=O)NCCNc2nccc(-c3c(-c4ccccc4)nc4sccn34)n2)cc1 [2III, 4-Methoxy-N-(2-((4-(6-phenylimidazo[2,1-b]thiazol-5-yl)pyrimidin-2-yl)amino)ethyl)benzenesulfonamide]
- IC50 ([2]; Homo sapiens): 3940 nM
- IC50 ([3]; Homo sapiens): 1680 nM
- IC50 ([4]; Homo sapiens): 5790 nM
- IC50 ([5]; Homo sapiens): 4980 nM
- IC50 [6]: 1220 nM
- IC50 [7]: 1170 nM
- IC50 [8]: 2770 nM
- IC50 [9]: 459 nM
- IC50 [10]: 77 nM

SMILES: CC1(C)CN(CCNc2nccc(-c3c(-c4cccc(O)c4)nc4occn34)n2)S(=O)(=O)N1 [5II, 2-(2-((4-(6-(3-Hydroxylphenyl)imidazo[2,1-b]oxazol-5-yl)pyrimidin-2-yl)amino)ethyl)-4,4-dimethyl-1,2,5-thiadiazolidine 1,1-dioxide]
- IC50 ([2]; Homo sapiens): 2300 nM
- IC50 ([3]; Homo sapiens): 340 nM
- IC50 ([4]; Homo sapiens): 220 nM
- IC50 ([5]; Homo sapiens): 1600 nM
- IC50 [6]: 740 nM
- IC50 [7]: 90 nM
- IC50 [8]: 320 nM
- IC50 [11]: 870 nM

SMILES: CN1CCCN(CCNc2nccc(-c3c(-c4cccc(O)c4)nc4occn34)n2)S1(=O)=O [6II, 2-(2-((4-(6-(3-Hydroxylphenyl)imidazo[2,1-b]oxazol-5-yl)pyrimidin-2-yl)amino)ethyl)-6-methyl-1,2,6-thiadiazinane 1,1-dioxide]
- IC50 ([2]; Homo sapiens): 4360 nM
- IC50 ([3]; Homo sapiens): 240 nM
- IC50 ([4]; Homo sapiens): 240 nM
- IC50 ([5]; Homo sapiens): 2280 nM
- IC50 [6]: 490 nM
- IC50 [7]: 58 nM
- IC50 [8]: 160 nM
- IC50 [11]: 470 nM

SMILES: O=S1(=O)NCCCN1CCNc1nccc(-c2c(-c3cccc(O)c3)nc3occn23)n1 [8II, 2-(2-((4-(6-(3-Hydroxylphenyl)imidazo[2,1-b]oxazol-5-yl)pyrimidin-2-yl)amino)ethyl)-1,2,6-thiadiazinane 1,1-dioxide]
- IC50 ([2]; Homo sapiens): 2150 nM
- IC50 ([3]; Homo sapiens): 170 nM
- IC50 ([4]; Homo sapiens): 170 nM
- IC50 ([5]; Homo sapiens): 380 nM
- IC50 [6]: 380 nM
- IC50 [7]: 59 nM
- IC50 [8]: 300 nM
- IC50 [11]: 58 nM

SMILES: COc1cccc(-c2nc3sccn3c2-c2ccnc(NCCNS(=O)(=O)c3ccc(C(F)(F)F)cc3)n2)c1 [8III, N-(2-((4-(6-(3-methoxyphenyl)imidazo[2,1-b]thiazol-5-yl)pyrimidin-2-yl)amino)ethyl)-4-(trifluoromethyl)benzenesulfonamide]
- IC50 [2]: 3260 nM
- IC50 [3]: 1240 nM
- IC50 [4]: 3680 nM
- IC50 [5]: 3040 nM
- IC50 [7]: 480 nM
- IC50 [9]: 687 nM
- IC50 [10]: 98 nM

SMILES: O=S(=O)(NCCNc1nccc(-c2c(-c3cccc(O)c3)nc3sccn23)n1)c1ccc(F)cc1 [25III, 4-Fluoro-N-(2-((4-(6-(3-hydroxylphenyl)imidazo[2,1-b]thiazol-5-yl)pyrimidin-2-yl)amino)ethyl)benzenesulfonamide]
- IC50 [2]: 4110 nM
- IC50 [3]: 1610 nM
- IC50 ([4]; Homo sapiens): 660 nM
- IC50 [5]: 4490 nM
- IC50 [6]: 930 nM
- IC50 [7]: 260 nM
- IC50 [8]: 560 nM
- IC50 [9]: 5.7 nM
- IC50 [10]: 1 nM
- IC50 [11]: 480 nM

SMILES: CCN1CCN(CCNc2nccc(-c3c(-c4cccc(O)c4)nc4occn34)n2)S1(=O)=O [drawing 151]
- IC50 [1]: 190 nM

SMILES: O=S1(=O)NCCN1CCNc1nccc(-c2c(-c3ccc(F)cc3)nc3sccn23)n1 [reference compound]
- IC50 [1]: 1900 nM

SMILES: CN1CCN(CCNc2nccc(-c3c(-c4ccc(F)cc4)nc4sccn34)n2)S1(=O)=O [reference compound]
- IC50 [1]: 600 nM

SMILES: CCN1CCN(CCNc2nccc(-c3c(-c4ccc(F)cc4)nc4sccn34)n2)S1(=O)=O [reference compound]
- IC50 [1]: 380 nM

SMILES: O=S1(=O)N(CCNc2nccc(-c3c(-c4ccc(F)cc4)nc4sccn34)n2)CCN1Cc1ccccc1 [reference compound]
- IC50 [1]: > 10000 nM

SMILES: CC(C)(C)OC(=O)N1CCN(CCNc2nccc(-c3c(-c4ccc(F)cc4)nc4sccn34)n2)S1(=O)=O [reference compound]
- IC50 [1]: > 10000 nM
